Results reported in patent US10590132B2, “Selective estrogen receptor down-regulators” (AstraZeneca AB, priority 2017, dated 2020).

Assay: Human plasma protein binding (equilibrium dialysis)
Assay type: in vitro ADME
Settings: dialysis 18 hours
Experimental: The automated equilibrium dialysis assay in human plasma uses the RED (Rapid Equilibrium Dialysis) Device and sample handling. The assay generally runs over two to three days including delivery of results. After dialysis for 18 hours, plasma and buffer samples are prepared for analysis by liquid chromatography and mass spectrometry. Samples are generally tested in singlicates and quantified by LC/MSMS by using a 7-point calibration curve in plasma. The compounds are pooled together in plasma pools up to 10 compounds. Three reference compounds are used in each run, Propranolol, Metoprolol and Warfarin. Warfarin is used as a control in each pool and Propranolol and Metoprolol are placed randomly in each run. An in-house Excel macro is used for preparation of files for the robot and the mass spectrometer and is also used for the calculations of fraction unbound (fu %) in plasma.

Row | Compound | Human plasma protein binding (% free)
1 | COc1ncc(NCCNCCCF)cc1[C@@H]1c2[nH]c3ccccc3c2C[C@@H](C)N1CC(F)(F)F [Example 41, N1-(3-fluoropropyl)-N2-(6-methoxy-5-((1R,3R)-3-methyl-2-(2,2,2-trifluoroethyl)-2,3,4,9-tetrahydro-1H-pyrido[3,4-b]indol-1-yl)pyridin-3-yl)ethane-1,2-diamine] | 1.8
2 | C[C@@H]1Cc2c([nH]c3ccccc23)[C@@H](c2nccc(OCCNCCCF)c2F)N1CC(F)(F)CO [Example 97, 2,2-difluoro-3-((1S,3R)-1-(3-fluoro-4-(2-((3-fluoropropyl)amino)ethoxy)pyridin-2-yl)-3-methyl-1,3,4,9-tetrahydro-2H-pyrido[3,4-b]indol-2-yl)propan-1-ol] | 6.8
3 | C[C@@H]1Cc2c([nH]c3c(F)cccc23)[C@@H](c2c(F)ccc(OCCNCCCF)c2F)N1CC(F)(F)CO [Example 60, 3-((1R,3R)-1-(2,6-difluoro-3-(2-((3-fluoropropyl)amino)ethoxy)phenyl)-8-fluoro-3-methyl-1,3,4,9-tetrahydro-2H-pyrido[3,4-b]indol-2-yl)-2,2-difluoropropan-1-ol] | 1.9
4 | C[C@@H]1Cc2c([nH]c3ccccc23)[C@@H](c2cc(OCCNCCCF)ccc2CO)N1CC(F)(F)F [Example 70, (4-(2-((3-fluoropropyl)amino)ethoxy)-2-((1R,3R)-3-methyl-2-(2,2,2-trifluoroethyl)-2,3,4,9-tetrahydro-1H-pyrido[3,4-b]indol-1-yl)phenyl)methanol] | 23
5 | C[C@@H]1Cc2c([nH]c3ccc(F)cc23)[C@@H](c2c(F)ccc(OCCNCCCF)c2F)N1CC(F)(F)CO [Example 15, 3-((1R,3R)-1-(2,6-difluoro-3-(2-((3-fluoropropyl)amino)ethoxy)phenyl)-6-fluoro-3-methyl-1,3,4,9-tetrahydro-2H-pyrido[3,4-b]indol-2-yl)-2,2-difluoropropan-1-ol] | 3.2
6 | C[C@@H]1Cc2c([nH]c3ccccc23)[C@@H](c2cc(OCCNCCCF)ccc2Cl)N1CC(F)(F)CO [Example 44, 3-((1R,3R)-1-(2-chloro-5-(2-((3-fluoropropyl)amino)ethoxy)phenyl)-3-methyl-1,3,4,9-tetrahydro-2H-pyrido[3,4-b]indol-2-yl)-2,2-difluoropropan-1-ol] | 2.3
7 | COc1c(F)cc(OCCNCCCF)c(F)c1[C@@H]1c2[nH]c3ccccc3c2C[C@@H](C)N1CC(F)(F)F [Example 29, N-(2-(2,5-difluoro-4-methoxy-3-((1R,3R)-3-methyl-2-(2,2,2-trifluoroethyl)-2,3,4,9-tetrahydro-1H-pyrido[3,4-b]indol-1-yl)phenoxy)ethyl)-3-fluoropropan-1-amine] | <3.2
8 | COc1ccc(NCCNCCCF)cc1[C@@H]1c2[nH]c3ccccc3c2C[C@@H](C)N1CC(F)(F)F [Example 40, N1-(3-fluoropropyl)-N2-(4-methoxy-3-((1R,3R)-3-methyl-2-(2,2,2-trifluoroethyl)-2,3,4,9-tetrahydro-1H-pyrido[3,4-b]indol-1-yl)phenyl)ethane-1,2-diamine] | 0.89
9 | Cc1c(OCCNCCCF)ncnc1[C@@H]1c2[nH]c3ccccc3c2C[C@@H](C)N1CC(F)(F)F [Example 114, 3-fluoro-N-(2-((5-methyl-6-((1S,3R)-3-methyl-2-(2,2,2-trifluoroethyl)-2,3,4,9-tetrahydro-1H-pyrido[3,4-b]indol-1-yl)pyrimidin-4-yl)oxy)ethyl)propan-1-amine] | 1.7
10 | Cc1ccc2[nH]c3c(c2c1)C[C@@H](C)N(CC(F)(F)CO)[C@@H]3c1c(F)cnc(OCCNCCCF)c1F [Example 66, 3-((1R,3R)-1-(3,5-difluoro-2-(2-((3-fluoropropyl)amino)ethoxy)pyridin-4-yl)-3,6-dimethyl-1,3,4,9-tetrahydro-2H-pyrido[3,4-b]indol-2-yl)-2,2-difluoropropan-1-ol] | 1.3
11 | CC(CN1[C@H](c2c(Cl)ccc(OCCNCCCF)c2Cl)c2[nH]c3ccc(F)cc3c2C[C@H]1C)C(=O)O (single isomer, unassigned) [Example 130] | 7.8
12 | Cc1ccc2[nH]c3c(c2c1)C[C@@H](C)N(CC(F)(F)CO)[C@@H]3c1c(F)ccc(OCCNCCCF)c1F [Example 63, 3-((1R,3R)-1-(2,6-difluoro-3-(2-((3-fluoropropyl)amino)ethoxy)phenyl)-3,6-dimethyl-1,3,4,9-tetrahydro-2H-pyrido[3,4-b]indol-2-yl)-2,2-difluoropropan-1-ol] | 0.97
13 | COc1ccc(OCCNCCCF)cc1[C@@H]1c2[nH]c3ccccc3c2C[C@@H](C)N1CC(F)(F)F [Example 7, 3-Fluoro-N-(2-(4-methoxy-3-((1R,3R)-3-methyl-2-(2,2,2-trifluoroethyl)-2,3,4,9-tetrahydro-1H-pyrido[3,4-b]indol-1-yl)phenoxy)ethyl)propan-1-amine] | 1.5
14 | Cc1c(OCCN(C)CCCF)ccc(F)c1[C@@H]1c2[nH]c3ccccc3c2C[C@@H](C(F)(F)F)N1C[C@H](C)C(=O)O [Example 149, (S)-3-((1R,3S)-1-(6-fluoro-3-(2-((3-fluoropropyl)(methyl)amino)ethoxy)-2-methylphenyl)-3-(trifluoromethyl)-1,3,4,9-tetrahydro-2H-pyrido[3,4-b]indol-2-yl)-2-methylpropanoic acid] | 5.3
15 | C[C@@H]1Cc2c([nH]c3ccccc23)[C@@H](c2cc(F)cc(OCCNCCCF)c2F)N1CC(F)(F)F [Example 31, N-(2-(2,5-difluoro-3-((1R,3R)-3-methyl-2-(2,2,2-trifluoroethyl)-2,3,4,9-tetrahydro-1H-pyrido[3,4-b]indol-1-yl)phenoxy)ethyl)-3-fluoropropan-1-amine] | 0.41
16 | C[C@@H]1Cc2c([nH]c3ccccc23)[C@@H](c2c(F)ccc(OCCNCCCF)c2Cl)N1CC(F)(F)CO [Example 85, 3-((1R,3R)-1-(2-chloro-6-fluoro-3-(2-((3-fluoropropyl)amino)ethoxy)phenyl)-3-methyl-1,3,4,9-tetrahydro-2H-pyrido[3,4-b]indol-2-yl)-2,2-difluoropropan-1-ol] | 1.0
17 | COc1cc(F)c(NCCNCCCF)cc1[C@@H]1c2[nH]c3ccccc3c2C[C@@H](C)N1CC(F)(F)F [Example 91, N1-(2-fluoro-4-methoxy-5-((1R,3R)-3-methyl-2-(2,2,2-trifluoroethyl)-2,3,4,9-tetrahydro-1H-pyrido[3,4-b]indol-1-yl)phenyl)-N2-(3-fluoropropyl)ethane-1,2-diamine] | 0.93
18 | C[C@@H]1Cc2c([nH]c3ccccc23)[C@@H](c2ccnc(OCCNCCCF)c2)N1CC(F)(F)F [Example 102, 3-fluoro-N-(2-((4-((1R,3R)-3-methyl-2-(2,2,2-trifluoroethyl)-2,3,4,9-tetrahydro-1H-pyrido[3,4-b]indol-1-yl)pyridin-2-yl)oxy)ethyl)propan-1-amine] | 1.4
19 | Cc1c(N(C)CCN(C)CCCF)ccc(F)c1[C@@H]1c2[nH]c3ccccc3c2C[C@@H](C)N1C[C@H](C)C(=O)O [Example 147, (S)-3-((1R,3R)-1-(6-fluoro-3-((2-((3-fluoropropyl)(methyl)amino)ethyl)(methyl)amino)-2-methylphenyl)-3-methyl-1,3,4,9-tetrahydro-2H-pyrido[3,4-b]indol-2-yl)-2-methylpropanoic acid] | 19
20 | COc1ccc(OCCNCCCF)c(F)c1[C@@H]1c2[nH]c3ccccc3c2C[C@@H](C)N1CC1(F)COC1 [Example 84, 3-fluoro-N-(2-(2-fluoro-3-((1R,3R)-2-((3-fluorooxetan-3-yl)methyl)-3-methyl-2,3,4,9-tetrahydro-1H-pyrido[3,4-b]indol-1-yl)-4-methoxyphenoxy)ethyl)propan-1-amine] | 6
21 | C[C@@H]1Cc2c([nH]c3ccccc23)[C@@H](c2c(F)cnc(OCCNCCCF)c2F)N1CC(F)(F)F [Example 107, N-(2-((3,5-difluoro-4-((1R,3R)-3-methyl-2-(2,2,2-trifluoroethyl)-2,3,4,9-tetrahydro-1H-pyrido[3,4-b]indol-1-yl)pyridin-2-yl)oxy)ethyl)-3-fluoropropan-1-amine] | 1
22 | Cc1ccc(OCCNCCCF)nc1[C@@H]1c2[nH]c3ccccc3c2C[C@@H](C)N1CC(F)(F)F [Example 105, 3-fluoro-N-(2-((5-methyl-6-((1S,3R)-3-methyl-2-(2,2,2-trifluoroethyl)-2,3,4,9-tetrahydro-1H-pyrido[3,4-b]indol-1-yl)pyridin-2-yl)oxy)ethyl)propan-1-amine] | 1
23 | C[C@@H]1Cc2c([nH]c3ccccc23)[C@@H](c2c(F)ccc(NCCNCCCF)c2F)N1CC(F)(F)F [Example 88, N1-(2,4-difluoro-3-((1R,3R)-3-methyl-2-(2,2,2-trifluoroethyl)-2,3,4,9-tetrahydro-1H-pyrido[3,4-b]indol-1-yl)phenyl)-N2-(3-fluoropropyl)ethane-1,2-diamine] | 0.58
24 | Cc1c(OCCN(C)CCCF)ncc(F)c1[C@@H]1c2[nH]c3ccccc3c2C[C@@H](C)N1C(C)CC(=O)O (single isomer, unassigned) [Example 159] | 13
25 | COc1ccc(OCCNCCCF)nc1[C@@H]1c2[nH]c3ccccc3c2C[C@@H](C)N1CC(F)(F)F [Example 56, 3-fluoro-N-(2-((5-methoxy-6-((1S,3R)-3-methyl-2-(2,2,2-trifluoroethyl)-2,3,4,9-tetrahydro-1H-pyrido[3,4-b]indol-1-yl)pyridin-2-yl)oxy)ethyl)propan-1-amine] | 4.6
26 | COc1cc(F)c(OCCNCCCF)cc1[C@@H]1c2[nH]c3ccccc3c2C[C@@H](C)N1CC(F)(F)F [Example 28, 3-fluoro-N-(2-(2-fluoro-4-methoxy-5-((1R,3R)-3-methyl-2-(2,2,2-trifluoroethyl)-2,3,4,9-tetrahydro-1H-pyrido[3,4-b]indol-1-yl)phenoxy)ethyl)propan-1-amine] | 1.2
